Consider 27 compounds from ChEMBL document CHEMBL5344434.

A short description of data set [1]: Selectivity index, ratio for cytotoxicity against human HepG2 cells after 24 hrs to antiviral activity against HEV Kernow-C1 infected in gaussia luciferase transfected HepG2 cells pre-infected with virus for 4 hrs followed by compound addition and measured after 24 hrs post infection. In kind it is toxicity, cell-based. As to conditions: read-out: Selectivity Index.

The nature of data set [2]: Selectivity index, ratio for cytotoxicity against human HepG2 cells after 48 hrs to antiviral activity against HEV Kernow-C1 infected in gaussia luciferase transfected HepG2 cells pre-infected with virus for 4 hrs followed by compound addition and measured after 48 hrs post infection. The data set is classed as toxicity, cell-based. As to conditions: read-out: Selectivity Index.

Data set [3] deals with Hepatitis E virus. Kind of data set: Antiviral activity against HEV Kernow-C1 infected in gaussia luciferase transfected HepG2 cells assessed as reduction in viral replication pre-infected with virus for 4 hrs followed by compound addition and measured after 24 hrs post infection by luminometer analysis. In kind it is functional, organism-based. Conditions: for EC90: time 20 hrs.

The nature of data set [4]: Cytotoxicity against human HepG2 cells after 24 hrs by MTT assay. In kind it is toxicity, cell-based. Background: Tetrazolium assays rely on reduction of a dye to a coloured formazan, in cell work by metabolically active cells.
The test system of data set [5] is Hepatitis E virus. Kind of data set: Antiviral activity against HEV Kernow-C1 infected in gaussia luciferase transfected HepG2 cells assessed as reduction in viral replication pre-infected with virus for 4 hrs followed by compound addition and measured after 48 hrs post infection by luminometer analysis. The data set is classed as functional, organism-based. Conditions: for EC90: time 44 hrs.

Data set [6] is described as follows: Cytotoxicity against human HepG2 cells after 48 hrs by MTT assay. The data set is classed as toxicity, cell-based.

Consider `COC(=O)[C@H]1[C@@H](O)[C@@]2(O)c3c(OC)cc(OC)cc3O[C@@]2(c2ccc(Br)cc2)[C@@H]1c1ccccc1` (racemic), for which the selectivity ratio at 24 h in data set [1] was 74.1. For the same compound, the selectivity ratio at 48 h in data set [2] was determined as 3.2.

The EC50 is the concentration needed to bring the measured effect to its halfway point. A word on the EC90: it is the concentration needed for an effect of 90%. As a reminder, the CC50 is the concentration that lowers cell viability or growth by half. As to `CONC(=O)[C@H]1[C@@H](O)[C@@]2(O)c3c(OC)cc(OC)cc3O[C@@]2(c2ccc(OC)cc2)[C@@H]1c1ccccc1` (racemic), in the data set with Hepatitis E virus [3], the EC50 turned out to be 6.1 nM and the EC90 worked out at 29 nM. In data set [4], this compound returned a half-maximal cytotoxic concentration (CC50) at 24 h of 188 nM. In the data set with Hepatitis E virus [5], the EC50 stood at 3.7 nM and the 90% effect concentration (EC90) worked out at 27.3 nM. Besides, in data set [6], the CC50 at 48 h amounted to 14.3 nM. For the same compound, the selectivity ratio at 24 h in data set [1] was 35.4. Also, the selectivity ratio at 48 h in data set [2] stood at 3.8.

Take `COC(=O)[C@H]1[C@@H](O)[C@@]2(O)c3c(OC)cc(Cl)cc3O[C@@]2(c2ccc(OC)cc2)[C@@H]1c1ccccc1` (racemic): the selectivity ratio at 24 h in data set [1] came to 79.3. Also, the selectivity ratio at 48 h in data set [2] was 7.5.

Turning to `COC(=O)[C@H]1[C@@H](O)[C@@]2(O)c3c(OC)cc(OC)cc3O[C@@]2(c2ccc(Cl)cc2)[C@@H]1c1ccccc1` (racemic), in data set [1], the selectivity ratio at 24 h turned out to be 26.4. The selectivity ratio at 48 h in data set [2] was determined as 2.2.

For `CONC(=O)[C@H]1[C@@H](O)[C@@]2(O)c3c(OC)cc(OC)cc3O[C@@]2(c2ccc(F)cc2)[C@@H]1c1ccccc1` (racemic), the EC50 in the data set with Hepatitis E virus [3] was found to be 53.7 nM; in the data set with Hepatitis E virus [5], 52.9 nM. The EC90 with Hepatitis E virus [3] is 670 nM; with Hepatitis E virus [5], 338 nM. In data set [4], this compound returned a cytotoxic concentration (CC50) at 24 h of 666 nM. The CC50 at 48 h in data set [6] worked out at 143 nM. Besides, the selectivity ratio at 24 h in data set [1] was 13.5. Also, the selectivity ratio at 48 h in data set [2] amounted to 3.7.

Regarding `CONC(=O)[C@H]1[C@@H](O)[C@@]2(O)c3c(F)cc(OC)cc3O[C@@]2(c2ccc(OC)cc2)[C@@H]1c1ccccc1` (racemic), the selectivity ratio at 24 h in data set [1] was found to be 28.5. In addition, in data set [2], the selectivity ratio at 48 h amounted to 2.5.

With `COC(=O)[C@H]1[C@@H](O)[C@@]2(O)c3c(F)cc(F)cc3O[C@@]2(c2ccc(OC)cc2)[C@@H]1c1ccccc1` (racemic), the selectivity ratio at 24 h in data set [1] came to 1. For the same compound, the selectivity ratio at 48 h in data set [2] came to 1.

For `COC(=O)[C@H]1[C@@H](O)[C@@]2(O)c3c(Br)cc(OC)cc3O[C@@]2(c2ccc(OC)cc2)[C@@H]1c1ccccc1` (racemic), in data set [1], the selectivity ratio at 24 h turned out to be 9.7. Moreover, the selectivity ratio at 48 h in data set [2] came to 2.5.

For the compound `COC(=O)[C@H]1[C@@H](O)[C@@]2(O)c3c(Cl)cc(OC)cc3O[C@@]2(c2ccc(OC)cc2)[C@@H]1c1ccccc1` (racemic), the selectivity ratio at 24 h in data set [1] was determined as 9.3. In addition, in data set [2], the selectivity ratio at 48 h was determined as 1.8.

Consider `COCOc1cc(F)c2c(c1)O[C@@]1(c3ccc(Br)cc3)[C@H](c3ccccc3)[C@@H](C(=O)OC)[C@@H](O)[C@@]21O` (racemic), for which the selectivity ratio at 24 h in data set [1] is 8.1. Besides, in data set [2], the selectivity ratio at 48 h turned out to be 2.1.

Turning to `COC(=O)[C@H]1[C@@H](O)[C@@]2(O)c3c(Cl)cc(Cl)cc3O[C@@]2(c2ccc(Br)cc2)[C@@H]1c1ccccc1` (racemic), the selectivity ratio at 24 h in data set [1] stood at 13.4. For the same compound, in data set [2], the selectivity ratio at 48 h was 3.7.

Take `COC(=O)[C@H]1[C@@H](O)[C@@]2(O)c3c(F)cc(OC)cc3O[C@@]2(c2ccc(OC)cc2)[C@@H]1c1ccccc1` (racemic): the selectivity ratio at 24 h in data set [1] was found to be 30.4. The selectivity ratio at 48 h in data set [2] came to 2.5.

For the compound `COC(=O)[C@H]1[C@@H](O)[C@@]2(O)c3c(Cl)cc(Br)cc3O[C@@]2(c2ccc(OC)cc2)[C@@H]1c1ccccc1` (racemic), in data set [1], the selectivity ratio at 24 h was found to be 122. Besides, in data set [2], the selectivity ratio at 48 h amounted to 5.1.

In the case of `COC(=O)[C@H]1[C@@H](O)[C@@]2(O)c3c(OC)cc(F)cc3O[C@@]2(c2ccc(OC)cc2)[C@@H]1c1ccccc1` (racemic), the selectivity ratio at 24 h in data set [1] came to 1. Moreover, the selectivity ratio at 48 h in data set [2] turned out to be 1.3.

For the compound `COCOc1cc(F)c2c(c1)O[C@@]1(c3ccc(OC)cc3)[C@H](c3ccccc3)[C@@H](C(=O)OC)[C@@H](O)[C@@]21O` (racemic), the selectivity ratio at 24 h in data set [1] was 4.6. For the same compound, the selectivity ratio at 48 h in data set [2] is 1.8.

In the case of `CONC(=O)[C@H]1[C@@H](O)[C@@]2(O)c3c(Br)cc(Cl)cc3O[C@@]2(c2ccc(OC)cc2)[C@@H]1c1ccccc1` (racemic), in the data set on Hepatitis E virus [3], the EC50 is 4.1 nM and the EC90 came out at 131 nM. For the same compound, the midpoint of cytotoxicity in data set [4], the CC50 at 24 h, lay at 464 nM. Besides, in the data set on Hepatitis E virus [5], the EC50 was determined as 5.5 nM and the EC90 came to 62.9 nM. In data set [6], this compound came in with a CC50 at 48 h of 26.3 nM. Further, the selectivity ratio at 24 h in data set [1] came to 163. Besides, the selectivity ratio at 48 h in data set [2] came to 4.6.

Consider `CONC(=O)[C@H]1[C@@H](O)[C@@]2(O)c3c(Cl)cc(Cl)cc3O[C@@]2(c2ccc(OC)cc2)[C@@H]1c1ccccc1` (racemic), for which, in data set [1], the selectivity ratio at 24 h amounted to 65.9. Moreover, the selectivity ratio at 48 h in data set [2] stood at 3.3.

Regarding `COC(=O)[C@H]1[C@@H](O)[C@@]2(O)c3c(Br)cc(Br)cc3O[C@@]2(c2ccc(OC)cc2)[C@@H]1c1ccccc1` (racemic), the selectivity ratio at 24 h in data set [1] was 22.1. Besides, the selectivity ratio at 48 h in data set [2] turned out to be 2.6.

`COC(=O)[C@H]1[C@@H](O)[C@@]2(O)c3c(OC)cc(OC)cc3O[C@@]2(c2ccc(F)cc2)[C@@H]1c1ccccc1` (racemic): the selectivity ratio at 24 h in data set [1] was found to be 10.9. Besides, the selectivity ratio at 48 h in data set [2] was determined as 1.4.

For `CONC(=O)[C@H]1[C@@H](O)[C@@]2(O)c3c(OC)cc(Br)cc3O[C@@]2(c2ccc(OC)cc2)[C@@H]1c1ccccc1` (racemic), in data set [1], the selectivity ratio at 24 h was 52800. For the same compound, the selectivity ratio at 48 h in data set [2] came to 7.4.

Consider `COc1cc(OC)c2c(c1)O[C@@]1(c3ccc(F)cc3)[C@H](c3ccccc3)[C@@H](C(=O)N(C)C)[C@@H](O)[C@@]21O` (racemic), for which the selectivity ratio at 24 h in data set [1] came out at 4.4. In addition, the selectivity ratio at 48 h in data set [2] amounted to 1.5.

Consider `CONC(=O)[C@H]1[C@@H](O)[C@@]2(O)c3c(OC)cc(OC)cc3O[C@@]2(c2ccc(Cl)cc2)[C@@H]1c1ccccc1` (racemic), for which, in the data set on Hepatitis E virus [3], the EC50 came to 2.8 nM and the 90% effect concentration (EC90) turned out to be 23.8 nM. In data set [4], this compound registered a cytotoxic concentration (CC50) at 24 h of 529 nM. Moreover, in the data set on Hepatitis E virus [5], the EC50 was determined as 2.3 nM and the EC90 came out at 18.2 nM. Moreover, the CC50 at 48 h in data set [6] was determined as 10 nM. For the same compound, the selectivity ratio at 24 h in data set [1] amounted to 198. For the same compound, the selectivity ratio at 48 h in data set [2] was found to be 4.2.

Take `COC(=O)[C@H]1[C@@H](O)[C@@]2(O)c3c(Br)cc(Cl)cc3O[C@@]2(c2ccc(OC)cc2)[C@@H]1c1ccccc1` (racemic): the selectivity ratio at 24 h in data set [1] stood at 19. For the same compound, in data set [2], the selectivity ratio at 48 h turned out to be 2.8.

On to `COc1ccc([C@@]23Oc4cc(OC)cc(F)c4[C@]2(O)[C@H](O)[C@H](C(=O)N(C)C)[C@H]3c2ccccc2)cc1` (racemic), for which, in data set [1], the selectivity ratio at 24 h is 14.3. Moreover, the selectivity ratio at 48 h in data set [2] was 2.7.

As for `COc1cc(OC)c2c(c1)O[C@@]1(c3ccc(Cl)cc3)[C@H](c3ccccc3)[C@@H](C(=O)N(C)C)[C@@H](O)[C@@]21O` (racemic), the selectivity ratio at 24 h in data set [1] stood at 50.8. In addition, the selectivity ratio at 48 h in data set [2] was 2.7.

For `COc1ccc([C@@]23Oc4cc(OC)cc(OC)c4[C@]2(O)[C@H](O)[C@H](C(=O)N(C)C)[C@H]3c2ccccc2)cc1` (racemic) [ROCAGLAMIDE], the selectivity ratio at 24 h in data set [1] amounted to 19.7. The selectivity ratio at 48 h in data set [2] is 2.1.

On to `COC(=O)[C@H]1[C@@H](O)[C@@]2(O)c3c(OC)cc(O[C@@H]4O[C@@H]([C@H](O)CO)CO[C@H]4OC)cc3O[C@@]2(c2ccc(OC)cc2)[C@@H]1c1ccccc1` [SILVESTROL], for which the selectivity ratio at 24 h in data set [1] stood at 76.7. Further, in data set [2], the selectivity ratio at 48 h was found to be 6.1.
